In the NIST ThermoML archive (doi:10.1016/j.jct.2017.03.026):
“And” between values parts separate entries of the source, which are not always exact repeats. Equal values may be shown once.

Assay: molar heat capacity at constant pressure
Details: 101.33 kPa, Crystal, Small (less than 1 g) adiabatic calorimetry

O.O.O.O.O.O=S(=O)([O-])[O-].[Cu+2] [copper(II) sulfate pentahydrate]
Details | molar heat capacity at constant pressure
233.45 K | 239.84 J/K/mol
234.05 K | 245.57 J/K/mol
234.17 K | 240.04 J/K/mol
234.4 K | 246.29 J/K/mol
234.6 K | 245.97 J/K/mol
234.74 K | 245.84 J/K/mol
235.43 K | 246.76 J/K/mol
235.54 K | 247.78 J/K/mol
235.9 K | 247.43 J/K/mol
236.03 K | 249.81 J/K/mol
236.12 K | 248.09 J/K/mol
236.33 K | 241.79 J/K/mol
236.34 K | 242 J/K/mol
236.67 K | 248.93 J/K/mol
236.8 K | 248.39 J/K/mol
237.18 K | 249.45 J/K/mol
237.49 K | 248.39 J/K/mol
237.8 K | 249.96 J/K/mol
238.17 K | 249.66 J/K/mol
238.48 K | 250.93 J/K/mol
238.49 K | 242.57 J/K/mol
238.86 K | 250.68 J/K/mol
238.93 K | 250.66 J/K/mol
239.22 K | 244.58 J/K/mol
239.28 K | 253.63 J/K/mol
239.54 K | 251.41 J/K/mol
239.78 K | 251.78 J/K/mol
240 K | 244.6 J/K/mol
240.05 K | 252.46 J/K/mol
240.22 K | 252.08 J/K/mol
240.64 K | 245.25 J/K/mol
240.9 K | 252.78 J/K/mol
241.06 K | 253.96 J/K/mol
241.18 K | 254.16 J/K/mol
241.62 K | 254.68 J/K/mol
242.1 K | 246.15 J/K/mol
242.31 K | 255.3 J/K/mol and 255.28 J/K/mol
242.34 K | 255.3 J/K/mol
242.5 K | 257.5 J/K/mol
242.81 K | 246.88 J/K/mol
243 K | 255.25 J/K/mol
243.44 K | 256.35 J/K/mol
243.63 K | 256.1 J/K/mol
243.67 K | 255.75 J/K/mol
244.35 K | 256.2 J/K/mol
244.56 K | 257.83 J/K/mol
244.9 K | 258.25 J/K/mol
244.96 K | 248.55 J/K/mol
244.99 K | 248.48 J/K/mol
245.02 K | 258.05 J/K/mol
245.68 K | 259.42 J/K/mol
245.7 K | 261.47 J/K/mol and 258.65 J/K/mol
246.21 K | 260.25 J/K/mol
246.37 K | 259.35 J/K/mol
246.81 K | 261 J/K/mol
247.04 K | 259.87 J/K/mol
247.17 K | 250.06 J/K/mol
247.49 K | 261.87 J/K/mol
247.71 K | 260.55 J/K/mol
247.81 K | 250.77 J/K/mol
247.93 K | 262.47 J/K/mol
248.38 K | 262.79 J/K/mol
248.76 K | 263.79 J/K/mol
248.87 K | 265.57 J/K/mol
249.05 K | 263.94 J/K/mol and 263.89 J/K/mol
249.35 K | 251.83 J/K/mol
249.73 K | 264.77 J/K/mol
250 K | 252.3 J/K/mol
250.03 K | 265.72 J/K/mol
250.16 K | 265.92 J/K/mol
250.4 K | 265.12 J/K/mol
250.65 K | 253.29 J/K/mol
250.81 K | 264.67 J/K/mol
251.06 K | 267.06 J/K/mol
251.11 K | 266.37 J/K/mol
251.28 K | 267.34 J/K/mol
251.4 K | 267.19 J/K/mol
251.54 K | 253.61 J/K/mol
251.7 K | 267.09 J/K/mol
251.73 K | 268.24 J/K/mol
252 K | 268.41 J/K/mol
252.02 K | 268.79 J/K/mol
252.3 K | 268.34 J/K/mol
252.43 K | 268.74 J/K/mol
252.44 K | 269.16 J/K/mol
252.6 K | 268.74 J/K/mol
252.91 K | 269.29 J/K/mol
253.1 K | 269.76 J/K/mol
253.21 K | 269.44 J/K/mol
253.49 K | 254.99 J/K/mol
253.51 K | 272.53 J/K/mol
253.55 K | 268.86 J/K/mol
253.73 K | 255.6 J/K/mol
253.77 K | 270.41 J/K/mol
253.82 K | 269.46 J/K/mol
254.13 K | 270.51 J/K/mol
254.44 K | 270.78 J/K/mol
254.48 K | 271.06 J/K/mol
254.67 K | 267.86 J/K/mol
254.79 K | 270.11 J/K/mol
255.09 K | 270.86 J/K/mol
255.11 K | 269.99 J/K/mol
255.15 K | 266.89 J/K/mol
255.4 K | 268.06 J/K/mol
255.71 K | 269.24 J/K/mol
255.78 K | 268.39 J/K/mol
255.79 K | 265.69 J/K/mol
255.93 K | 257.4 J/K/mol
256.02 K | 270.78 J/K/mol
256.31 K | 256.81 J/K/mol
256.34 K | 267.49 J/K/mol
256.46 K | 267.76 J/K/mol
256.65 K | 267.31 J/K/mol
256.92 K | 265.79 J/K/mol
256.96 K | 267.59 J/K/mol
257.13 K | 266.91 J/K/mol
257.27 K | 266.51 J/K/mol
257.59 K | 266.84 J/K/mol
257.81 K | 266.84 J/K/mol
257.9 K | 267.19 J/K/mol
258.04 K | 266.69 J/K/mol
258.2 K | 258.77 J/K/mol
258.23 K | 266.29 J/K/mol
258.28 K | 269.36 J/K/mol
258.49 K | 266.59 J/K/mol
258.54 K | 266.91 J/K/mol
258.86 K | 266.27 J/K/mol
259.1 K | 259.75 J/K/mol
259.16 K | 267.91 J/K/mol and 267.81 J/K/mol
259.17 K | 266.56 J/K/mol
259.54 K | 267.76 J/K/mol
259.84 K | 267.96 J/K/mol
259.85 K | 268.01 J/K/mol
260 K | 260.1 J/K/mol
260.17 K | 268.06 J/K/mol
260.28 K | 269.14 J/K/mol
260.42 K | 260.6 J/K/mol
260.48 K | 269.74 J/K/mol
260.5 K | 268.36 J/K/mol
260.81 K | 268.66 J/K/mol
261.13 K | 268.81 J/K/mol
261.17 K | 270.24 J/K/mol
261.39 K | 272.21 J/K/mol
261.41 K | 270.41 J/K/mol
261.45 K | 269.31 J/K/mol
261.76 K | 270.09 J/K/mol
261.85 K | 271.36 J/K/mol
261.91 K | 260.82 J/K/mol
262.08 K | 270.58 J/K/mol
262.39 K | 270.73 J/K/mol
262.53 K | 272.18 J/K/mol and 271.23 J/K/mol
262.65 K | 262.42 J/K/mol
262.71 K | 270.93 J/K/mol
263.03 K | 271.38 J/K/mol
263.24 K | 272.33 J/K/mol
263.34 K | 272.38 J/K/mol
263.65 K | 274.08 J/K/mol
263.66 K | 273.13 J/K/mol
